Data from article PMC3536056 (Journal of immunology (Baltimore, Md. : 1950), 2012).
“Also recorded” adds a separate entry of the source.

Columns and labels:
H-2D^b = molecular target: T1, H-2D^b (Mus musculus, UniProt P01899); assay: Stability; type: binding; conditions: for half-life of peptide/H-2D^b complexes: RMA/s cells loaded overnight at 29 °C, washed, decay at 37 °C, flow cytometry; for pMHC stability (in words): versus wild type site V peptide, RMA/s decay at 37 °C
T1 sequence (P01899 25-362): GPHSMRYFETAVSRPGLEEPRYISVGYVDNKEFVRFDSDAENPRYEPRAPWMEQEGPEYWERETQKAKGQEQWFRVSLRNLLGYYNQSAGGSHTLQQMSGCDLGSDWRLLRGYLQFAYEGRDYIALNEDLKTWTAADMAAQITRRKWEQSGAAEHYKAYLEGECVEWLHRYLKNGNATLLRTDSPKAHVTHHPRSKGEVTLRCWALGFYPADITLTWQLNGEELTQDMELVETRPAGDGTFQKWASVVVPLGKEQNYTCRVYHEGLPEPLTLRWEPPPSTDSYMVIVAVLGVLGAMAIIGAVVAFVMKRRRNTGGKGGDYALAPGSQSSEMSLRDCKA
T1 sequence (P01887 21-119 partner): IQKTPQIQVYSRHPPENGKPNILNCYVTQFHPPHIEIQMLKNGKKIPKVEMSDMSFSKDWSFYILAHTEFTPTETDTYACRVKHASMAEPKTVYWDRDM

TCR-V T cells = type: cell-based, mice; conditions: for functional avidity for TCR-V T cells (in words): 10^−7–10^−12 M peptide, versus wild type site V
[1] = tested on: polyclonal site V-specific T cells; assay: Intracellular IFN-γ, peptide-stimulated polyclonal site V-specific T cells; type: cell-based, mice; conditions: 10^−7–10^−12 M peptide; versus wild type site V
naïve TCR-V T cells = assay: In vivo proliferation of CFSE-labeled naïve TCR-V cells; parameters: species or system B6 mice; conditions: peptide s.c. 100 μg in IFA, or rVV i.v. 10^7 PFU; 3 days
D^b = conditions: Flu determinants; cited from earlier work
[2] = molecular target: H-2D^b (mouse (endogenous in RMA/s)); assay: flow cytometry on cells

## AGINNLDNL [Q489A]
H-2D^b
  half-life of peptide/H-2D^b complexes: approximately 4 hours
  pMHC stability (in words): formed more stable pMHC than the wild type site V peptide; also recorded: most dramatic increase in pMHC stability
TCR-V T cells
  functional avidity for TCR-V T cells (in words): not increased
[1]
  functional avidity for polyclonal site V-specific T cells (in words): not increased
naïve TCR-V T cells
  TCR-V division on bypassing cross-presentation (in words): almost all of the TCR-V cells underwent division

## ASNENMETM [NP366–374]
D^b
  estimated half-life of D^b pMHC: ~ 4 hours

## PA224–233: dominant D^b-Flu determinant (SSLENFRAYV; UniProt P03433 224-233, looked up, fragment)
D^b
  estimated half-life of D^b pMHC: ~16 hours

## QAINNLDNL [G490A]
H-2D^b
  half-life of peptide/H-2D^b complexes: ~2.75 h
  pMHC stability (in words): formed more stable pMHC than the wild type site V peptide; also recorded: moderately increased stability compared to wt site V; also recorded: modest increase in pMHC stability
TCR-V T cells
  reduction of functional avidity for TCR-V T cells: five
  functional avidity for TCR-V T cells (in words): not increased
[1]
  functional avidity for polyclonal site V-specific T cells (in words): not increased

## SAINNYAQKL [site I, reference compound]
H-2D^b
  half-life of peptide/H-2D^b complexes: greater than 4 hours
  pMHC stability (in words): most stable

## SV40 TAg site I peptide (…)
[2]
  half-life of the pMHC complex: > 4 hours

## SV40 TAg site V peptide (…)
[2]
  half-life of the pMHC complex: 2 hours

## site V variant peptide G490A (…)
[2]
  half-life of the pMHC complex: 2.75 hours

## site V variant peptide Q489A (…)
[2]
  fold increase of relative affinity against wild type site V: 4 fold
  half-life of the pMHC complex: 4 hours
